Laboratory results: patent publication US20250197425A1, “2,6,9-TRISUBSTITUTED PURINES” (ASTRAZENECA AB, priority 2022, published 2025)
In brackets after ≈: the same amount, converted by molar mass. Like-named read-outs stand apart in the source and are kept apart here.

Legend:
[1] = tested on: OVCAR3 cells; assay: Cellular proliferation EdU assay, OVCAR3; format: cell-based, human; conditions: EdU assay, two days, read-out: OVCAR3 IC50
Method: (§1) Compounds were tested to assess inhibition of cellular proliferation in the breast cancer cell line MCF-7 and the CCNE1-amplified ovarian cell line OVCAR3.
(§2) MCF-7 and OVCAR3 cells in RPMI supplemented with 10% Fetal bovine serum were seeded into 384-well plates (Greiner, Kremsmunster, Austria; 781091), 30 μL/well, using a WellMate. The MCF7 and OVCAR3 cells were seeded at 800 and 1200 cells/well, respectively. Test compounds were added to the wells using an Echo 555 liquid handler and the plates were placed in incubator maintained at 37° C. and 5% CO2 and incubated for two days. On Day 2, an EdU assay was performed following the manufacturer's protocol (Thermo Fisher, C10351). The cells were read on an Acumen eX3 instrument. The IC50 values of test compounds were determined in Genedata by assessing the ratio of signal intensity at 488 nm to the area of signal at 405 nm.

[2] = Aqueous thermodynamic solubility, shake-flask; format: physicochemical; conditions: phosphate buffer 0.1 M, pH 7.4, 24 hours
Method: The DMSO was evaporated and the dried compounds were equilibrated in glass vials in aqueous phosphate buffer (0.1 M, pH 7.4) for 24 hours at 25° C. under constant stirring. The portion with the dissolved compound was then separated from the remainder through a double centrifugation with a tip wash in between to ensure that no residues of the dried compound were interfering. The solutions were diluted with purified water before quantification using UPLC/MS/MS.

[3] = tested on: NPM phosphorylation (Thr199, CDK2-cyclin E complex); assay: NPM phosphorylation imaging assay in MCF-7 cells; format: cell-based; conditions: 4N DNA cells
Method: Compounds were tested to assess the effects of CDK2 inhibition in a cellular context. […] During the cell cycle, the CDK2-cyclin E complex phosphorylates NPM at Thr199 which is a prerequisite step for initiation of centrosome duplication.
The cells were fixed by addition of 40 μL/well of 8% paraformaldehyde and incubated at room temperature for 10 minutes. The plates were washed three times with 50 μL/well PBS using a Biotek EL406 plate washer and then permeabilized for 10 minutes at room temperature in 0.3% Triton X100 in PBS. After washing as before, the plates were blocked using 30 μL/well of 2% BSA (w/v) in PBS-T for at least 30 minutes at room temperature. […] Cells containing 4N DNA were selected using the Hoechst staining. Phospho-NPM levels were normalized to controls and the IC50 values of test compounds determined using Genedata Screener software.

[4] = tested on: POLR2A Ser2 phosphorylation (CDK9); assay: POLR2A Ser2 phosphorylation imaging assay in MCF-7 cells; format: cell-based; conditions: MCF-7 cells, 2 hours, read-out: POLR2A Ser2 phosphorylation IC50
Method: Compounds were tested to assess their effect on CDK9 activity in a cellular context. […] During the cell cycle, CDK9 is a component of a multiprotein complex that phosphorylates POLR2A Ser2 which results in transcription elongation.
[…] were fixed by addition of 40 μL/well of 8% paraformaldehyde and incubated for 10 minutes at room temperature. The plates were washed three times with 50 μL/well PBS using a Biotek EL406 plate washer and then permeabilized for 10 minutes at room temperature in 0.3% Triton X100 in PBS. After washing as before, the plates were blocked using 30 μL/well of 2% BSA (w/v) in PBS-T for over 30 minutes at room temperature. […] After washing in PBS as before, leaving each well in 40 μL of PBS, the plates were sealed and imaged on a Cell Insight imaging system (Thermo) with a 10× objective and 2 fields of view per well. POLR2A Ser2levels were normalized to controls and the IC50 values of test compounds determined using Genedata Screener software.

[5] = target: CDK2:CCNE1 (Homo sapiens (Human), UniProt P24941); assay: NanoBRET assay in MCF-7 cells, CDK2; format: cell-based; conditions: transfected MCF-7 cells, 2 hours, n = 1 or average
Method: Compounds were tested in breast cancer cell line MCF-7 to assess inhibition of CDK1, CDK2, and CDK4 activity. […] The next day media were evacuated from the wells using the Bluewasher centrifugal plate washer (Bluecatbio) and 10 μL/well phenol red free OptiMEM was then added using a Multidrop Combi. […] Immediately after compound addition, a Tecan HP300 dispensor was used to dispense the relevant NanoBRET™ tracer to the CDK1 wells (12.5 nl, 400 μM, NanoBRET™ TE Tracer K-9), the CDK2 wells (12.5 nl, 200 μM, NanoBRET™ TE Tracer K-9), and the CDK4 wells (8 nl, 100 μM, NanoBRET™ TE Tracer K-7) and the plates were incubated for 2 hours at 37° C. and 5% CO2. […] The plates were incubated in subdued lighting for 10 minutes and then read on a Pherastar FS plate reader (BMG Technologies) using a NanoBRET™ filter module (460±80 nm/610 nm-LP). The ratio values were normalized to controls and the IC50 values of test compounds determined using Genedata Screener software.

[6] = CLint assessment in human liver microsomes (HLM); format: in vitro ADME; conditions: 1 μM
Method: After a preincubation with NADPH for 8 minutes, reactions were initiated through the addition of the test compound (final volume 250 μl) and incubated at 37° C. in a water bath for 30 minutes. […] Samples were shaken at 800 rpm for 2 minutes and centrifuged at 4000 rpm for 20 minutes at 4° C. to pellet precipitated protein. The supernatant fraction was diluted 1:5 with deionized water, shaken at 1000 rpm for 2 minutes, and further diluted 1:1 with deionized water. Samples were analyzed by LC-MS/MS. The t1/2 and the CLint of the compounds incubated in the LM, HLM, and HμREL assays as described above were calculated according to the following equations: […] where V (μl/×10^6 cells or mg protein) is the incubation volume (μl) divided by the number of cells (×10^6) or microsomal protein content (mg) in the incubation.

[7] = target: CDK1:CCNB1 (Homo sapiens (Human), UniProt P06493); assay: NanoBRET assay in MCF-7 cells, CDK1; format: cell-based; conditions: NanoBRET, transfected MCF-7 cells, 2 hours; n = 1 or average; read-out: CDK1 IC50
Sequence of CDK1:CCNB1 (P06493 whole entry): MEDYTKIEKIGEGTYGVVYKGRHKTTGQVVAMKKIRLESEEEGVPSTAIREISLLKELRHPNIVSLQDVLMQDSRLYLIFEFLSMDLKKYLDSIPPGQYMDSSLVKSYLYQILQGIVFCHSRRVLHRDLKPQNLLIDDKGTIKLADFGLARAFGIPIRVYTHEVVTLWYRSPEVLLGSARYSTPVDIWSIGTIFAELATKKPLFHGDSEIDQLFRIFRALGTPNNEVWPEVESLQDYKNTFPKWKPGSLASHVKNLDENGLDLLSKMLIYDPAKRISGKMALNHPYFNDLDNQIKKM
Sequence of CDK1:CCNB1 (P14635 whole entry partner): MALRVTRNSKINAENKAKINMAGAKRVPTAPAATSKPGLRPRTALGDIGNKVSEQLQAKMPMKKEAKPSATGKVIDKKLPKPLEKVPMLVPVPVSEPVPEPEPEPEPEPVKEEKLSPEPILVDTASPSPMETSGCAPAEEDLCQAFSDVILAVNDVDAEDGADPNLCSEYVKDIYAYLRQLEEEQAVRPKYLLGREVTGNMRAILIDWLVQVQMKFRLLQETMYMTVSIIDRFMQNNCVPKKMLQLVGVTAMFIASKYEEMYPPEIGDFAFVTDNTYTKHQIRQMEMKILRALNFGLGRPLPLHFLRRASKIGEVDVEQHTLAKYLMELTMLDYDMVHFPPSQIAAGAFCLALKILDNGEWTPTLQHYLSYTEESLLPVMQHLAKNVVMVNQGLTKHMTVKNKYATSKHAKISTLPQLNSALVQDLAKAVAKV
Method: (§3) Compounds were tested in breast cancer cell line MCF-7 to assess inhibition of CDK1, CDK2, and CDK4 activity. MCF-7 cells transiently transfected with CDK1:CCNB1, CDK2:CCNE1, or CDK4:CCND1 were harvested at a density of 1E5 cells/mL in complete media, seeded 20 μL/well into 384-well Greiner 784080 plates using a Multidrop Combi, and incubated overnight at 37° C. and 5% CO2. The next day media were evacuated from the wells using the Bluewasher centrifugal plate washer (Bluecatbio) and 10 μL/well phenol red free OptiMEM was then added using a Multidrop Combi. […] Immediately after compound addition, a Tecan HP300 dispensor was used to dispense the relevant NanoBRET™ tracer to the CDK1 wells (12.5 nl, 400 μM, NanoBRET™ TE Tracer K-9), the CDK2 wells (12.5 nl, 200 μM, NanoBRET™ TE Tracer K-9), and the CDK4 wells (8 nl, 100 μM, NanoBRET™ TE Tracer K-7) and the plates were incubated for 2 hours at 37° C. and 5% CO2. The plates were allowed to cool for 10 minutes at room temperature and 5 μL/well of TE Nano-Glo®Substrate/Inhibitor at 2.4 μM and 1:500 respectively (N2162 Promega) was added. The plates were incubated in subdued lighting for 10 minutes and then read on a Pherastar FS plate reader (BMG Technologies) using a NanoBRET™ filter module (460±80 nm/610 nm-LP). The ratio values were normalized to controls and the IC50 values of test compounds determined using Genedata Screener software.

[8] = target: CDK4:CCND1 (Homo sapiens (Human), UniProt P11802); assay: NanoBRET assay in MCF-7 cells, CDK4; format: cell-based; conditions: NanoBRET, transfected MCF-7 cells, 2 hours; n = 1 or average; read-out: CDK4 IC50
Sequence of CDK4:CCND1 (P11802 whole entry): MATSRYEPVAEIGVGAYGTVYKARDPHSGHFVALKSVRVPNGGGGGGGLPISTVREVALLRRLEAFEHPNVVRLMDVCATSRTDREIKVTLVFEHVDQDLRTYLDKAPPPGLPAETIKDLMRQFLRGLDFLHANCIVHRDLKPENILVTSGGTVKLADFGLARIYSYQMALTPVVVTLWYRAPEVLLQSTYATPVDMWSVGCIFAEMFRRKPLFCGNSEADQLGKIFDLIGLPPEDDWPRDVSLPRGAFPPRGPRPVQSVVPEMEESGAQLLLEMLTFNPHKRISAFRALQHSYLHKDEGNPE
Sequence of CDK4:CCND1 (P24385 whole entry partner): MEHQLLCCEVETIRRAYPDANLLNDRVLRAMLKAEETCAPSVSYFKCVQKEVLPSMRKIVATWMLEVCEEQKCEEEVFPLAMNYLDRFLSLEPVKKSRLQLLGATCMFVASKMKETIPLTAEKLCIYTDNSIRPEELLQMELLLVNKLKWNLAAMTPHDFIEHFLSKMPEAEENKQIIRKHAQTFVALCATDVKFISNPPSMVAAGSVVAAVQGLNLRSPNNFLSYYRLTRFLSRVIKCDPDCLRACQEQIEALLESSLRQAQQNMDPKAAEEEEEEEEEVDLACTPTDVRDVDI
Method: as §3

[9] = tested on: MCF-7 cells; assay: Cellular proliferation EdU assay, MCF-7; format: cell-based; conditions: EdU assay, two days, read-out: MCF-7 IC50
Method: as §1, §2

[10] = aqueous phosphate buffer, 25 °C, pH 7.4, aqueous buffer, thermodynamic from solid

Row | SMILES | IC50 ([1]; Homo sapiens, OVCAR-3, 48 h) [nM] | solubility at 24 h [2, 10] [µM] | IC50 ([3]; Homo sapiens, MCF7, 2 h) [nM] | IC50 ([4]; Homo sapiens, MCF7, 2 h) [nM] | IC50 [5] [nM] | HLM CLint [6] [µL/min/mg] | IC50 [7] [nM] | IC50 [8] [nM] | IC50 ([9]; Homo sapiens, MCF7, 48 h) [nM] | IC50 [1] [nM] | solubility at 24 h ([2]; 25° C.) [µM] | IC50 ([3]; 2 hours) [nM] | IC50 [9] [nM] | IC50 [4] [nM]
1 | CCNS(=O)(=O)N1CC[C@H](Nc2nc(N[C@@H](CO)CC3CC3)nc3c2ncn3CC)C1 (relative stereo) [Example 58, (S)-3-((2-(((R*)-1-cyclopropyl-3-hydroxypropan-2-yl)amino)-9-ethyl-9H-purin-6-yl)amino)-N-ethylpyrrolidine-1-sulfonamide] | 431 | 51.9 (≈ 23.5 µg/mL) | 137 | > 30000 | 17 | 202 | 671 | 1700 | 874 |  |  |  |  | 
2 | CCNS(=O)(=O)N1CC[C@H](Nc2nc(N[C@@H](C)C(C)(C)O)nc3c2ncn3CC)C1 (relative stereo) [Example 59, (S)—N-ethyl-3-((9-ethyl-2-(((R*)-3-hydroxy-3-methylbutan-2-yl)-amino)-9H-purin-6-yl)amino)pyrrolidine-1-sulfonamide] | 950 | > 1000 | 337 | > 30000 | 37 | 35.9 | 1690 | 11400 | 1780 |  |  |  |  | 
3 | CCn1cnc2c(N[C@H]3CCN(S(=O)(=O)NC)C3)nc(-c3cccc4c3CNC4=O)nc21 [Example 1, (S)-3-((9-ethyl-2-(1-oxoisoindolin-4-yl)-9H-purin-6-yl)amino)-N-methylpyrrolidine-1-sulfonamide] | 270 | 7 (≈ 3.2 µg/mL) | 551 | 13300 | 17 | >300 | 236 | 11900 | 2000 |  |  |  |  | 
4 | CCn1cnc2c(N[C@H]3CCN(S(=O)(=O)NC)C3)nc(-c3cccc4c3CC[C@H]4O)nc21 [Example 2, (S)-3-((9-ethyl-2-((R)-1-hydroxy-2,3-dihydro-1H-inden-4-yl)-9H-purin-6-yl)amino)-N-methylpyrrolidine-1-sulfonamide] | 404 | 55 (≈ 25.2 µg/mL) | 301 | 15400 | 29 | 61.6 | 904 | 17800 | 1360 |  |  |  |  | 

More lines, now with the values ahead:

Row | IC50 ([1]; Homo sapiens, OVCAR-3, 48 h) [nM] | solubility at 24 h [2, 10] [µM] | IC50 ([3]; Homo sapiens, MCF7, 2 h) [nM] | IC50 ([4]; Homo sapiens, MCF7, 2 h) [nM] | IC50 [5] [nM] | HLM CLint [6] [µL/min/mg] | IC50 [7] [nM] | IC50 [8] [nM] | IC50 ([9]; Homo sapiens, MCF7, 48 h) [nM] | IC50 [1] [nM] | solubility at 24 h ([2]; 25° C.) [µM] | IC50 ([3]; 2 hours) [nM] | IC50 [9] [nM] | IC50 [4] [nM] | SMILES
5 | 155 | 884 (≈ 480 µg/mL) | 55 | 4400 | 11 | 33.5 | 186 | 1500 | 200 |  |  |  |  |  | C[C@H](Nc1nc(N[C@@H]2CN(S(=O)(=O)c3ncc[nH]3)C[C@H]2F)c2ncn(C(F)F)c2n1)[C@@H](O)C(F)(F)F (relative stereo) [Example 57, (2R,3S)-3-((6-(((3R*,4R*)-1-((1H-imidazol-2-yl)sulfonyl)-4-fluoropyrrolidin-3-yl)amino)-9-(difluoromethyl)-9H-purin-2-yl)amino)-1,1,1-trifluorobutan-2-ol]
6 |  |  |  | 20200 | 13 | 19.5 | 907 | 4400 |  | 383 | 120 (≈ 56 µg/mL) | 144 | 775 |  | CCn1cnc2c(N[C@H]3CCN(S(=O)(=O)NC)C3)nc(N[C@@H](C)[C@@H](O)C(F)(F)F)nc21 (single isomer, unassigned) [Example 49, (S)-3-((9-ethyl-2-(((2R*,3S*)-4,4,4-trifluoro-3-hydroxybutan-2-yl)amino)-9H-purin-6-yl)amino)-N-methylpyrrolidine-1-sulfonamide]
7 |  |  |  |  | 64 | 36.3 | 2350 | 14200 |  | 1220 | 23.1 (≈ 10.8 µg/mL) | 412 | 2760 | > 30000 | CCn1cnc2c(N[C@H]3CCN(S(=O)(=O)NC)C3)nc(N[C@@H](C)[C@@H](O)C(F)(F)F)nc21 (single isomer, unassigned) [Example 50, (S)-3-((9-ethyl-2-(((2R*,3S*)-4,4,4-trifluoro-3-hydroxybutan-2-yl)amino)-9H-purin-6-yl)amino)-N-methylpyrrolidine-1-sulfonamide]
